Test results as given in patent publication US20230340011A1 (Asteroid Therapeutics, priority 2022, published 2023).
pEC50, pIC50: −log10 of the molar value. Read-outs that look alike come from different tables or passages of the source.

Tests used:
SREBP-2 = SREBP-2 (Homo sapiens (Human), UniProt Q12772); assay: In vitro assay SREBP-2: PathHunter U2OS SREBP-2 Nuclear Translocation Cell Line, U18666A-stimulated; format: cell-based
LXRβ = LXRβ (Homo sapiens (Human), UniProt P55055); assay: In vitro assay LXRβ: PathHunter NHR CHO cells, LXRβ / Steroid Receptor Co-activator Peptide enzyme fragment complementation; format: cell-based; conditions: PathHunter NHR CHO cells, full-length human LXRβ and SRCP, chemiluminescent signal; read-out: LXRβ PPI
Procedure, shortened: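 Co-activator recruitment measured by chemiluminescence after signal generation. The CHO line carries full-length human LXRβ tagged with ProLink and an SRCP–enzyme acceptor fusion in the nucleus; cells sat overnight at 37° C before testing, in charcoal-dextran filtered serum medium with 1% final vehicle.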

[1] = PathHunter U2OS SREBP-2 nuclear translocation cells, U18666A 10 μM, overnight (16 hours)

Chain of LXRβ (P55055 whole entry, the tested form may be a part): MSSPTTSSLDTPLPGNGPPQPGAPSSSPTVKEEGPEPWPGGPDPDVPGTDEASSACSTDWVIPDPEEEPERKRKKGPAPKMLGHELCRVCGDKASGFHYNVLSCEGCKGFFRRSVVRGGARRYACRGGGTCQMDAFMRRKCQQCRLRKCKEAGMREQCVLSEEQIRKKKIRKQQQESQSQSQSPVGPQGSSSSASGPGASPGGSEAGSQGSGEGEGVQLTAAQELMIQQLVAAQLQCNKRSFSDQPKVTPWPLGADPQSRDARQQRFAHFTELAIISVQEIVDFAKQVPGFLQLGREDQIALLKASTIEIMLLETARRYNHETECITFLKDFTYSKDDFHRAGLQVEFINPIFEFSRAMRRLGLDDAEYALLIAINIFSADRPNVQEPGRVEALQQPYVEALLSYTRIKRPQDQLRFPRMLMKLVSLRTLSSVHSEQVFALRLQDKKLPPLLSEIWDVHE

| Compound | pIC50 (SREBP-2) | pEC50 (LXRβ) | pIC50 (SREBP-2; [1]) |
| --- | --- | --- | --- |
| C[C@H](CCC(=O)N1CCN(C(=O)N(C)C2CC2)CC1)[C@H]1CC[C@H]2[C@@H]3CC=C4C[C@@H](O)CC[C@]4(C)[C@H]3CC[C@]12C [Example 211, N-cyclopropyl-4-((R)-4-((3S,8S,9S,10R,13R,14S,17R)-3-hydroxy-10,13-dimethyl-2,3,4,7,8,9,10,11,12,13,14,15,16,17-tetradecahydro-1H-cyclopenta[a]phenanthren-17-yl)pentanoyl)-N-methylpiperazine-1-carboxamide] | > 6.60 | < 5.00 |  |
| COC(=O)N1CCN(C(=O)NC[C@@H](C)[C@H]2CC[C@H]3[C@@H]4CC=C5C[C@@H](O)CC[C@]5(C)[C@H]4CC[C@]23C)CC1 [Example 236, Methyl 4-(((S)-2-((3S,8S,9S,10R,13S,14S,17R)-3-hydroxy-10,13-dimethyl-2,3,4,7,8,9,10,11,12,13,14,15,16,17-tetradecahydro-1H-cyclopenta[a]phenanthren-17-yl)propyl)carbamoyl)piperazine-1-carboxylate] |  | < 5.00 | > 6.60 |
| CCC(=O)N1CCN(C(=O)CC[C@@H](C)[C@H]2CC[C@H]3[C@@H]4CC=C5C[C@@H](O)CC[C@]5(C)[C@H]4CC[C@]23C)CC1 [Example 385, (R)-4-((3S,8S,9S,10R,13R,14S,17R)-3-hydroxy-10,13-dimethyl-2,3,4,7,8,9,10,11,12,13,14,15,16,17-tetradecahydro-1H-cyclopenta[a]phenanthren-17-yl)-1-(4-propionylpiperazin-1-yl) pentan-1-one] |  | < 5.00 | > 6.60 |
| C[C@H](CCC(=O)N1CCN(c2cc(O)ncn2)CC1)[C@H]1CC[C@H]2[C@@H]3CC=C4C[C@@H](O)CC[C@]4(C)[C@H]3CC[C@]12C [Example 631, (4R)-4-[(1R,3aS,3bS,7S,9aR,9bS,11aR)-7-hydroxy-9a,11a-dimethyl-1H,2H,3H,3aH,3bH,4H,6H,7H,8H,9H,9aH,9bH,10H,11H,11aH-cyclopenta[a]phenanthren-1-yl]-1-[4-(6-hydroxypyrimidin-4-yl)piperazin-1-yl]pentan-1-one] |  | < 5.00 | > 6.60 |
| C[C@H](CCC(=O)N1CCN(C(=O)C(C)(C)O)[C@@H](C)C1)[C@H]1CC[C@H]2[C@@H]3CC=C4C[C@@H](O)CC[C@]4(C)[C@H]3CC[C@]12C [Example 652, (4R)-4-[(1R,3aS,3bS,7S,9aR,9bS,11aR)-7-hydroxy-9a,11a-dimethyl-1H,2H,3H,3aH,3bH,4H,6H,7H,8H,9H,9aH,9bH,10H,11H, 11 aH-cyclopenta[a]phenanthren-1-yl]-1-[(3 S)-4-(2-hydroxy-2-methylpropanoyl)-3-methylpiperazin-1-yl]pentan-1-one] |  | < 5.00 | > 6.60 |
| C[C@H](CCC(=O)N(C)OCCC(F)(F)F)[C@H]1CC[C@H]2[C@@H]3CC=C4C[C@@H](O)CC[C@]4(C)[C@H]3CC[C@]12C [Example 29, (R)-4-((3S,8S,9S,10R,13R,14S,17R)-3-hydroxy-10,13-dimethyl-2,3,4,7,8,9,10,11,12,13,14,15,16,17-tetradecahydro-1H-cyclopenta[a]phenanthren-17-yl)-N-methyl-N-(3,3,3-trifluoropropoxy)pentanamide] |  | < 5.00 | > 6.60 |
| COc1cncc(N2CCN(C(=O)CC[C@@H](C)[C@H]3CC[C@H]4[C@@H]5CC=C6C[C@@H](O)CC[C@]6(C)[C@H]5CC[C@]34C)CC2)n1 [Example 662, (R)-4-((3S,8S,9S,10R,13R,14S,17R)-3-hydroxy-10,13-dimethyl-2,3,4,7,8,9,10,11,12,13,14,15,16,17-tetradecahydro-1H-cyclopenta[a]phenanthren-17-yl)-1-(4-(6-methoxypyrazin-2-yl)piperazin-1-yl)pentan-1-one] |  | < 5.00 | > 6.60 |
| C[C@H](CCC(=O)N1CCN(C(C)(C)C)CC1)[C@H]1CC[C@H]2[C@@H]3CC=C4C[C@@H](O)CC[C@]4(C)[C@H]3CC[C@]12C [Example 557, (4R)-4-[(1R,3aS,3bS,7S,9aR,9bS,11aR)-7-hydroxy-9a,11a-dimethyl-1H,2H,3H,3aH,3bH,4H,6H,7H,8H,9H,9aH,9bH,10H,11H,11aH-cyclopenta[a]phenanthren-1-yl]-1-(4-tert-butylpiperazin-1-yl)pentan-1-one] |  | < 5.00 | 6.00 to 6.60 |
| C[C@H](CCC(=O)N1CCC(C(F)(F)F)CC1)[C@H]1CC[C@H]2[C@@H]3CC=C4C[C@@H](O)CC[C@]4(C)[C@H]3CC[C@]12C [Example 82, (R)-4-((3S,8S,9S,10R,13R,14S,17R)-3-hydroxy-10,13-dimethyl-2,3,4,7,8,9,10,11,12,13,14,15,16,17-tetradecahydro-1H-cyclopenta[a]phenanthren-17-yl)-1-(4-(trifluoromethyl)piperidin-1-yl)pentan-1-one] |  | < 5.00 | > 6.60 |
| C[C@H](CCC(=O)N1CCCOCC1)[C@H]1CC[C@H]2[C@@H]3CC=C4C[C@@H](O)CC[C@]4(C)[C@H]3CC[C@]12C [Example 81, (R)-4-((3S,8S,9S,10R,13R,14S,17R)-3-hydroxy-10,13-dimethyl-2,3,4,7,8,9,10,11,12,13,14,15,16,17-tetradecahydro-1H-cyclopenta[a]phenanthren-17-yl)-1-(1,4-oxazepan-4-yl)pentan-1-one] |  | 6.00 to 6.60 | > 6.60 |
| C[C@H](CCC(=O)N1CCN(c2ccncn2)C[C@@H]1C)[C@H]1CC[C@H]2[C@@H]3CC=C4C[C@@H](O)CC[C@]4(C)[C@H]3CC[C@]12C [Example 588, (4R)-4-[(1R,3aS,3bS,7S,9aR,9bS,11aR)-7-hydroxy-9a,11a-dimethyl-1H,2H,3H,3aH,3bH,4H,6H,7H,8H,9H,9aH,9bH,10H,11H,11aH-cyclopenta[a]phenanthren-1-yl]-1-[(2S)-2-methyl-4-(pyrimidin-4-yl)piperazin-1-yl]pentan-1-one] |  | < 5.00 | > 6.60 |
| C[C@H](COC(=O)N(C)CCO)[C@H]1CC[C@H]2[C@@H]3CC=C4C[C@@H](O)CC[C@]4(C)[C@H]3CC[C@]12C [Example 350, (2S)-2-[(1R,3aS,3bS,7S,9aR,9bS,11aS)-7-hydroxy-9a,11a-dimethyl-1H,2H,3H,3aH,3bH,4H,6H,7H,8H,9H,9aH,9bH,10H,11H,11aH-cyclopenta[a]phenanthren-1-yl]propyl N-(2-hydroxyethyl)-N-methylcarbamate] |  | < 5.00 | 6.00 to 6.60 |
| CCC1(O)CCN(C(=O)CC[C@@H](C)[C@H]2CC[C@H]3[C@@H]4CC=C5C[C@@H](O)CC[C@]5(C)[C@H]4[C@@H](O)C[C@]23C)CC1 [Example 158, (R)-4-((3S,8S,9S,10R,11S,13R,14S,17R)-3,11-dihydroxy-10,13-dimethyl-2,3,4,7,8,9,10,11,12,13,14,15,16,17-tetradecahydro-1H-cyclopenta[a]phenanthren-17-yl)-1-(4-ethyl-4-hydroxypiperidin-1-yl)pentan-1-one] |  | > 6.60 | 6.00 to 6.60 |
| C[C@H](CCC(=O)N1CCC(C)(NS(C)(=O)=O)CC1)[C@H]1CC[C@H]2[C@@H]3CC=C4C[C@@H](O)CC[C@]4(C)[C@H]3CC[C@]12C [Example 84, N-(1-((R)-4-((3S,8S,9S,10R,13R,14S,17R)-3-hydroxy-10,13-dimethyl-2,3,4,7,8,9,10,11,12,13,14,15,16,17-tetradecahydro-1H-cyclopenta[a]phenanthren-17-yl)pentanoyl)-4-methylpiperidin-4-yl)methanesulfonamide] |  | < 5.00 | 6.00 to 6.60 |
| COc1ccnc(CC[C@@H](C)[C@H]2CC[C@H]3[C@@H]4CC=C5C[C@@H](O)CC[C@]5(C)[C@H]4CC[C@]23C)c1 [Example 602, (3S,8S,9S,10R,13R,14S,17R)-17-((R)-4-(4-methoxypyridin-2-yl)butan-2-yl)-10,13-dim ethyl-2,3,4,7,8,9,10,11,12,13,14,15,16,17-tetradecahydro-1H-cyclopenta[a]phenanthren-3-ol] |  | 6.00 to 6.60 | > 6.60 |
| (R)-1-(4-(5,6-dimethoxypyrimidin-4-yl)piperazin-1-yl)-4-((3S,8S,9S,10R,13R,14S,17R)-3-hydroxy-10,13-dimethyl-2,3,4,7,8,9,10,11,12,13,14,15,16,17-tetradecahydro-1H-cyclopenta[a]phenanthren-17-yl)pentan-1-one [Example 620] |  | < 5.00 | > 6.60 |
| CCCN(CCC)C(=O)C(=O)O[C@@H](C)[C@H]1CC[C@H]2[C@@H]3CC=C4C[C@@H](O)CC[C@]4(C)[C@H]3CC[C@]12C [Example 196, (S)-1-((3S,8S,9S,10R,13S,14S,17S)-3-hydroxy-10,13-dimethyl-2,3,4,7,8,9,10,11,12,13,14,15,16,17-tetradecahydro-1H-cyclopenta[a]phenanthren-17-yl)ethyl 2-(dipropylamino)-2-oxoacetate] |  | 5.00 to 6.00 | > 6.60 |
| C[C@H](CCC(=O)N1CCC(C(C)(C)O)CC1)[C@H]1CC[C@H]2[C@@H]3CC=C4C[C@@H](O)CC[C@]4(C)[C@H]3CC[C@]12C [Example 378, (R)-4-((3S,8S,9S,10R,13R,14S,17R)-3-hydroxy-10,13-dimethyl-2,3,4,7,8,9,10,11,12,13,14,15,16,17-tetradecahydro-1H-cyclopenta[a]phenanthren-17-yl)-1-(4-(2-hydroxypropan-2-yl)piperidin-1-yl)pentan-1-one] |  | < 5.00 | > 6.60 |
| C[C@H](CCc1cccc(C(F)(F)F)n1)[C@H]1CC[C@H]2[C@@H]3CC=C4C[C@@H](O)CC[C@]4(C)[C@H]3CC[C@]12C [Example 166, (3S,8S,9S,10R,13R,14S,17R)-10,13-dimethyl-17-((R)-4-(6-(trifluoromethyl)pyridin-2-yl)butan-2-yl)-2,3,4,7,8,9,10,11,12,13,14,15,16,17-tetradecahydro-1H-cyclopenta[a]phenanthren-3-ol] |  | < 5.00 | 6.00 to 6.60 |
